Holding throughout (assay type): cell-based
Experiment [1] relates to human umbilical-vein endothelial cells (HUVEC). Briefly: Tube Formation Assay (TFA) Test, HUVEC in collagen gel. As to conditions: 20 hours, 40% or less judged remarkable; for inhibition at 1 µg/mL / inhibition at 10 µg/mL: Homo sapiens, HUVEC, read-out: TFA (inhibition rate, %). The gist of the method: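 Inhibition rate (%) of tube formation is computed from tube lengths against control (+) and control (-), measured after 20 h at 37 °C in M-199 with 20% FCS, 30 ng/ml b-FGF and 0.1 μM PMA. Samples were applied to HUVEC on collagen and covered by a second collagen layer (double-layer gel).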

Experiment [2] shares this test system. Briefly: Cell Proliferation Assay (CPA) Test, HUVEC, MTT. As to conditions: M199 (2+) medium; for IC50: Homo sapiens, read-out: CPA (IC50 μg/ml). In a few lines: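 HUVEC (7th subculture) seeded at 5×10^4 cells/ml in M-199 with 20% FCS, 10 ng/ml b-FGF and 10 ng/ml EGF, grown 24 h at 37 °C, 5% CO2. Compounds added from 1 mg/ml or 0.1 mg/ml samples in 5% DMSO-PBS(−), renewed with medium after 24 h, then cultured 48 h more. Read-out by MTT with 4 h incubation and SDS/HCl stop.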

The test system is the same in experiment [3]. Briefly: Cell Migration Assay (CMA) Test, HUVEC (% relative to control). As to conditions: 24 hours, 60% or less = remarkable inhibition; for activity at 1 µg/mL / activity at 10 µg/mL: Homo sapiens, HUVEC, read-out: CMA (% relative to control). In a few lines: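 Confluent 7th-subculture HUVEC monolayers scraped with razor blade, then given M199 (2+) plus 40 or 4 μl of 1 mg/ml sample (in 5% DMSO-PBS) per 4.0 ml medium for 24 h at 37 °C. Methanol-fixed, Giemsa-stained; newly migrated cells counted microscopically in 1 mm×1 mm blocks, expressed versus M199 (2+) control.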

Values after ≈ are worked out from the molar mass of the structure shown. Where two headings read alike, the source gives them in different places. Where only a bound is given, the exact number is not on record here.

The inhibition is the relative decrease from the control value, in per cent.

With `CNC(=O)O[C@@H]1OC=C(C(=O)NC2CCCCC2)[C@H]2C[C@@H]3O[C@]3(C)[C@H]12` [compound 21, (1S,4aS,6S,7R,7aR)-6,7-epoxy-1,4a,5,6,7,7a-hexahydro-7-methyl-1-(methylcarbamoyloxy) cyclopenta [c]-pyrane-4-carboxylic acid cyclohexylamide], in experiment [1] (20 h, 1 μg/ml), the inhibition at 1 µg/mL came to 29.5%. Also, the inhibition at 10 µg/mL in experiment [1] (20 h, 10 μg/ml) came to 23.2%. Further, in experiment [2], the IC50 was more than 100 µg/mL. Besides, the activity at 1 µg/mL in experiment [3] (1 μg/ml) amounted to 105%. Besides, the activity at 10 µg/mL in experiment [3] (10 μg/ml) is 101%.

Regarding `CCCCCCOC(=O)C1=CO[C@@H](OC(=O)NC)[C@@H]2[C@@H]1C[C@@H]1O[C@]21C` [compound 5, (1S,4aS,6S,7R,7aR)-6,7-epoxy-1,4a,5,6,7,7a-hexahydro-7-methyl-1-(methylcarbamoyloxy) cyclopenta [c]-pyrane-4-carboxylic acid n-hexylester], in experiment [1] (20 h, 1 μg/ml), the inhibition at 1 µg/mL stood at 20.8%. In addition, the inhibition at 10 µg/mL in experiment [1] (20 h, 10 μg/ml) stood at 34.5%. Moreover, in experiment [2], the IC50 worked out at 44.9 µg/mL (≈ 127 µM). Also, the activity at 1 µg/mL in experiment [3] (1 μg/ml) worked out at 98.6%. Also, in experiment [3] (10 μg/ml), the activity at 10 µg/mL is 82%.

Take `C=CCCCOC(=O)C1=CO[C@@H](OC(=O)NC)[C@@H]2[C@@H]1C[C@@H]1O[C@]21C` [compound 7, (1S,4aS,6S,7R,7aR)-6,7-epoxy-1,4a,5,6,7,7a-hexahydro-7-methyl-1-(methylcarbamoyloxy) cyclopenta [c]-pyrane-4-carboxylic acid 4-pentenylester]: in experiment [1] (20 h, 1 μg/ml), the inhibition at 1 µg/mL is 25.8%. Further, in experiment [1] (20 h, 10 μg/ml), the inhibition at 10 µg/mL was determined as 18.2%. For the same molecule, the IC50 in experiment [2] came out at 90.6 µg/mL (≈ 269 µM). In addition, the activity at 1 µg/mL in experiment [3] (1 μg/ml) came out at 82.6%. The activity at 10 µg/mL in experiment [3] (10 μg/ml) turned out to be 79.7%.

Consider Protamine [reference compound], for which the “TFA (inhibition rate, %)” value in experiment [1] (1 μg/ml) is on record as 41.0%; in experiment [1] (10 μg/ml), 25.4%. Moreover, in experiment [2], the “CPA (IC50 μg/ml)” value was 52.7 µg/mL. In addition, the “CMA (% relative to control)” value in experiment [3] (1 μg/ml) is 69.2%; in experiment [3] (10 μg/ml), 50.0%.

Consider `CNC(=O)OC1OC=C(C(=O)N2CCN(C)CC2)C2CC3OC3(C)C12` [compound 20, (1S,4aS,6S,7R,7aR)-6,7-epoxy-1,4a,5,6,7,7a-hexahydro-7-methyl-1-(methylcarbamoyloxy) cyclopenta [c]-pyrane-4-carboxylic acid 4-methylpiperazylamide], for which the inhibition at 1 µg/mL in experiment [1] (20 h, 1 μg/ml) stood at 34.3%. Also, the inhibition at 10 µg/mL in experiment [1] (20 h, 10 μg/ml) came out at 19.6%. The IC50 in experiment [2] was more than 100 µg/mL. Moreover, in experiment [3] (1 μg/ml), the activity at 1 µg/mL amounted to 97.4%. In experiment [3] (10 μg/ml), the activity at 10 µg/mL turned out to be 89.5%.

Take `CCNC(=O)O[C@@H]1OC=C(C(=O)OC)[C@H]2C[C@@H]3O[C@]3(C)[C@H]12` [compound 30, (1S,4aS,6S,7R,7aR)-6,7-epoxy-1-(ethylcarbamoyloxy)-1,4a,5,6,7,7a-hexahydro-7-methylcyclopenta [c] pyrane-4-carboxylic acid methylester]: the inhibition at 1 µg/mL in experiment [1] (20 h, 1 μg/ml) stood at 16.5%. Further, in experiment [1] (20 h, 10 μg/ml), the inhibition at 10 µg/mL turned out to be 36%. Moreover, the IC50 in experiment [2] is more than 100 µg/mL. In addition, in experiment [3] (1 μg/ml), the activity at 1 µg/mL stood at 90%. For the same molecule, the activity at 10 µg/mL in experiment [3] (10 μg/ml) was 105%.

Consider `CNC(=O)OCC12O[C@H]1C[C@@H]1C(C(=O)OC)=CO[C@@H](OC(=O)NC)C12` (stereo in doubt) [compound 48, (1S,4aS,6S,7R,7aR)-6,7-epoxy-1-(methylcarbamoyloxy)-7-(methylcarbamoyloxymethyl)-1,4a,5,6,7,7a-hexahydrocyclopenta [c] pyrane-4-carboxylic acid methylester], for which the inhibition at 1 µg/mL in experiment [1] (20 h, 1 μg/ml) is 51.5%. In experiment [1] (20 h, 10 μg/ml), the inhibition at 10 µg/mL turned out to be 54.1%. Further, the IC50 in experiment [2] is more than 100 µg/mL. The activity at 1 µg/mL in experiment [3] (1 μg/ml) was 93.3%. Further, the activity at 10 µg/mL in experiment [3] (10 μg/ml) amounted to 107%.

With `O=c1[nH]cc(F)c(=O)[nH]1` [5-FU, 5-fluorouracil, reference compound], the inhibition at 1 µg/mL in experiment [1] (1 μg/ml) is 42.4%. For the same molecule, the inhibition at 10 µg/mL in experiment [1] (10 μg/ml) stood at 52.3%. Moreover, the IC50 in experiment [2] is 3.5 µg/mL (≈ 26.9 µM). The activity at 1 µg/mL in experiment [3] (1 μg/ml) was found to be 102%. Besides, the activity at 10 µg/mL in experiment [3] (10 μg/ml) turned out to be 92.9%.

`CNC(=O)OC[C@@H]1[C@@H](C)CC[C@@H]1C1(COC(=O)NC)CO1` (stereo partly drawn) [Compound 59, 2-[(1S,2R,3S)-2-(methylcarbamoyloxy)methyl-3-methylcyclopento-1-yl]-2,3-epoxy-propane-1-methylcarbamate]: the “TFA (inhibition rate, %)” value in experiment [1] (1 μg/ml) is reported as 5.9%; in experiment [1] (10 μg/ml), -4.5%. The “CPA (IC50 μg/ml)” value in experiment [2] was more than 100.0 µg/mL. Further, the “CMA (% relative to control)” value is recorded as 99.3% in experiment [3] (1 μg/ml) and 92.5% in experiment [3] (10 μg/ml).

For `CCNC(=O)C1=CO[C@@H](OC(=O)NC)[C@@H]2[C@@H]1C[C@@H]1O[C@]21C` [compound 16, (1S,4aS,6S,7R,7aR)-6,7-epoxy-1,4a,5,6,7,7a-hexahydro-7-methyl-1-(methylcarbamoyloxy) cyclopenta [c]-pyrane-4-carboxylic acid ethylamide], in experiment [1] (20 h, 1 μg/ml), the inhibition at 1 µg/mL was determined as 30.7%. Also, the inhibition at 10 µg/mL in experiment [1] (20 h, 10 μg/ml) is 21.6%. Moreover, in experiment [2], the IC50 is more than 100 µg/mL. The activity at 1 µg/mL in experiment [3] (1 μg/ml) was determined as 98.1%. Further, in experiment [3] (10 μg/ml), the activity at 10 µg/mL worked out at 102%.

As for `CNC(=O)O[C@@H]1OC=C(C(=O)OC)[C@H]2C[C@@H]3O[C@]3(C)[C@H]12` [compound 3, (1S,4aS,6S,7R,7aR)-6,7-epoxy-1,4a,5,6,7,7a-hexahydro-1-methylcarbamoyloxy-7-methylcyclopenta [c] pyrane-4-carboxylic acid methylester], the inhibition at 1 µg/mL in experiment [1] (20 h, 1 μg/ml) came to 33%. Moreover, the inhibition at 10 µg/mL in experiment [1] (20 h, 10 μg/ml) stood at 33.5%. In addition, the IC50 in experiment [2] is more than 100 µg/mL. Also, the activity at 1 µg/mL in experiment [3] (1 μg/ml) stood at 68.5%. Besides, the activity at 10 µg/mL in experiment [3] (10 μg/ml) came to 57.3%.

Take `CNC(=O)O[C@@H]1OC=C(C(=O)OCc2ccccc2)[C@H]2C[C@@H]3O[C@]3(C)[C@H]12` [compound 11, (1S,4aS,6S,7R,7aR)-6,7-epoxy-7-methyl-1-(methylcarbamoyloxy)-1,4a,5,6,7,7a-hexahydrocyclopenta [c]-pyrane-4-carboxylic acid benzyl ester]: the inhibition at 1 µg/mL in experiment [1] (20 h, 1 μg/ml) worked out at 20.7%. Moreover, the inhibition at 10 µg/mL in experiment [1] (20 h, 10 μg/ml) was found to be 40.3%. Further, in experiment [2], the IC50 is more than 100 µg/mL. For the same molecule, the activity at 1 µg/mL in experiment [3] (1 μg/ml) stood at 102%. Moreover, the activity at 10 µg/mL in experiment [3] (10 μg/ml) was found to be 85.5%.

For the molecule `COC(=O)C1=CO[C@H](OC(=O)NC(=O)CCl)[C@@H]2[C@@H]1C[C@@H]1O[C@]21C` [compound 40, (1R,4aS,6S,7R,7aR)-1-(chloroacetylcarbamoyloxy)-6,7-epoxy-1,4a,5,6,7,7a-hexahydro-7-methylcyclopenta [c] pyrane-4-carboxylic acid methylester], in experiment [1] (20 h, 1 μg/ml), the inhibition at 1 µg/mL was determined as 32.8%. Moreover, the inhibition at 10 µg/mL in experiment [1] (20 h, 10 μg/ml) came out at 23.8%. The IC50 in experiment [2] worked out at 58.1 µg/mL (≈ 168 µM). In addition, in experiment [3] (1 μg/ml), the activity at 1 µg/mL came out at 77.3%. Also, the activity at 10 µg/mL in experiment [3] (10 μg/ml) turned out to be 66.8%.

Regarding `CC[C@]12O[C@H]1C[C@@H]1C(C(=O)OC)=CO[C@@H](OC(=O)NC)[C@@H]12` [compound 43, (1S,4aS,6s,7R,7aR)-6,7-epoxy-7-ethyl-1,4a,5,6,7,7a-1-hexahydro-1-(methylcarbamoyloxy) cyclopenta [c] pyrane-4-carboxylic acid methylester], the inhibition at 1 µg/mL in experiment [1] (20 h, 1 μg/ml) was 12.4%. The inhibition at 10 µg/mL in experiment [1] (20 h, 10 μg/ml) came out at 9.1%. The IC50 in experiment [2] was more than 100 µg/mL. In addition, in experiment [3] (1 μg/ml), the activity at 1 µg/mL was 99.9%. In experiment [3] (10 μg/ml), the activity at 10 µg/mL turned out to be 89.3%.

Take `CCCCCCNC(=O)C1=COC(OC(=O)NC)C2C1CC1OC12C` [compound 17, (1S,4aS,6S,7R,7aR)-6,7-epoxy-1,4a5 6,7,7a-hexahydro-7-methyl-1-(methylcarbamoyloxy) cyclopenta [c]-pyrane-4-carboxylic acid n-hexylamide]: in experiment [1] (20 h, 1 μg/ml), the inhibition at 1 µg/mL turned out to be 19%. Moreover, the inhibition at 10 µg/mL in experiment [1] (20 h, 10 μg/ml) is 23.4%. Also, the IC50 in experiment [2] was 69.1 µg/mL (≈ 196 µM). Further, the activity at 1 µg/mL in experiment [3] (1 μg/ml) stood at 94.4%. Moreover, the activity at 10 µg/mL in experiment [3] (10 μg/ml) turned out to be 114%.

As for `COC(=O)C1=CO[C@@H](OC(=O)NC(=O)c2ccccc2)[C@@H]2[C@@H]1C[C@@H]1O[C@]21C` [compound 41, (1S,4aS,6S,7R,7aR)-1-(benzoylcarbamoyloxy)-6,7-epoxy-1,4a,5,6,7,7a-hexahydro-7-methylcyclopenta [c] pyrane-4-carboxylic acid methylester], the inhibition at 1 µg/mL in experiment [1] (20 h, 1 μg/ml) came to 46.7%. Also, in experiment [1] (20 h, 10 μg/ml), the inhibition at 10 µg/mL came out at 37.6%. Moreover, the IC50 in experiment [2] is 56.1 µg/mL (≈ 150 µM). The activity at 1 µg/mL in experiment [3] (1 μg/ml) was determined as 102%. Moreover, in experiment [3] (10 μg/ml), the activity at 10 µg/mL amounted to 95%.

For the origin of these results see patent publication US6225478A, “Iridoid derivatives and neovascularization inhibitors containing the same as active ingredient” (Tsumura & Co., priority 1999, dated 2001).
